Target: T1, human Farsenoid X Receptor ligand binding domain - GST fusion protein (GST-FXR LBD) (Homo sapiens, UniProt Q96RI1)
T1 construct: Human FXR-LBD (amino acid 248-476); made in house; host or cells: E. coli BL21
T1 sequence (Q96RI1 248-476 isoform Q96RI1-1): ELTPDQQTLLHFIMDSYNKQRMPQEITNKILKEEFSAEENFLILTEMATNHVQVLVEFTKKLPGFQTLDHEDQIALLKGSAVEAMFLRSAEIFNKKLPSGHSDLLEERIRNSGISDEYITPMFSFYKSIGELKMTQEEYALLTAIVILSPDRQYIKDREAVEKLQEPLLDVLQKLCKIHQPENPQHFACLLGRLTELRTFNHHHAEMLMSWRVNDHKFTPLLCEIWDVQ
Assay: FXR-SRC-1 Cofactor Recruitment Assay (time-resolved fluorescence energy transfer)
Type: biochemical
Conditions: SRC-1 peptide recruitment, 1 hour at room temperature
Excerpt: BIOLOGICAL EXPERIMENTS FXR-SRC-1 Cofactor Recruitment Assay
GST-LBD is labelled with a europium chelate (donor) via a europium-tagged anti-GST antibody, and the co-activator peptide is labelled with allophycocyanin-APC (acceptor) via a streptavidin-biotin linkage.
In the presence of an agonist for the nuclear receptor, the peptide is recruited to the GST-LBD, bringing europium and allophycocyanin into close proximity to enable energy transfer from the europium chelate to the allophycocyanin. Upon excitation of the complex with light at 340 nm, excitation energy absorbed by the europium chelate is transmitted to the allophycocyanin moiety resulting in emission at 665 nm. […] The activity of a nuclear receptor agonist can be measured by determining the ability of a compound to bind the nuclear receptor in this test (EC50) and compare to the ability of reference compound to bind this same nuclear receptor. […]
A mix without peptide (same than peptide mix were peptide was replaced by water) was also set-up and for each compound (each concentration tested) a basal fluorescence level was determined in order to detect self-fluorescent compounds. […]
Plates were incubated 1 hour at room temperature and fluorescence was read on a time resolved mode on a Wallac/Perkin Elmer Victor2 counter.
For each compound concentration, fluorescent signal ratio: F665/F615×1000 was calculated. […]

Structure (SMILES): O=C(O)c1cc2c(Br)c(N3CCC(N(C(=O)C4CC4)c4ccc(Cl)cc4Cl)CC3)ccc2o1 [Example 165, 4-Bromo-5-{4-[cyclopropanecarbonyl-(2,4-dichloro-phenyl)-amino]-piperidin-1-yl}-benzofuran-2-carboxylic acid]
- EC50: 106 nM

From patent publication US8575161B2, “Benzofurane, benzothiophene, benzothiazol derivatives as FXR modulators” (Merck Patent GmbH, priority 2008, dated 2013)
